The source of these data is PMC7520419 (The AAPS Journal, 2020).

Values after ≈ are worked out from the molar mass of the structure shown. Counter-ions that a name gives are not always drawn. Like-named read-outs stand apart in the source and are kept apart here.

Details of series [1]: method as in Table I reference column. The note with it: not generated within this working group; ref Table I; cited from earlier work.
On the set-up of series [2]: Food Effect (graded symbols): key to the marks not given beside the values. Conditions: cited from earlier work.
The nature of a further series: BCS classification. In kind it is physicochemical.
Series [3] is described as follows: PBPK food effect modeling (Simcyp V17.1 and/or GastroPlus V9.5; Model 1 / Model 2). Also on record: species or system human.
The subject of the next series is Caco-2. The note with it: cited from earlier work.
The conditions of series [4]: not generated within this working group; ref Table I; cited from earlier work.
The nature of series [5]: Effective human jejunum permeability (Peff,man) used in the PBPK model. Format: in vitro ADME. Conditions: human, 1 h.
Procedure: Permeation rates of the compounds, including reference compounds, were measured in the apical-to-basolateral (AB) direction. The donor and receiver wells were sampled immediately after application of the compound to the donor well to determine baseline concentrations, and again after 1 h. Quantification was done using high-performance liquid chromatography combined with mass spectrometry (HPLC-MS/MS) analysis and monolayer integrity was verified by analyzing the receiver samples for LuY fluorescence in a plate reader.
Series [6] in a line: Solubility measurement in aqueous buffer solutions. The note with it: pH 6.5, aqueous buffer, thermodynamic from solid.
Procedure: (§1) The solubility of the drug substances was determined in biorelevant media as well as in aqueous buffers at different pH. Fasted state simulated gastric fluid (FaSSGF) ([37]), fasted state simulated intestinal fluid (FaSSIF-V2) ([38]), and fed state simulated intestinal fluid (FeSSIF-V2) ([39]) were prepared according to the instructions provided by Biorelevant (Biorelevant.com Ltd., London, UK). […] For neutral compounds, solubility was determined at pH 2, pH 4, and pH 7.
(§2) For freely soluble compounds, the extent of solubilization was measured only up to 10 mg/mL.
The nature of series [7]: Solubility measurement in biorelevant media (FaSSIF-V2, FeSSIF-V2). Conditions: 37 °C, thermodynamic from solid.
Procedure: as §1, §2
The nature of series [8]: physchem. Conditions: 37 °C, thermodynamic from solid.
Procedure: as §1, §2
Series [9] in a line: physchem. Conditions: pH 6.5, aqueous buffer, thermodynamic from solid.
Procedure: as §1, §2
[10] abbreviates: Model 1, fasted, ref published clinical data (Table I).
The mark [11] stands for this setting: Model 1, fed, ref published clinical data (Table I).
[12] abbreviates: Model 1, ref published clinical data (Table I).
Setting [13] is: clinically observed PK change (AUC, Cmax) fed vs fasted, compiled by literature search.
The mark [14] stands for this setting: direction, AUC and/or Cmax ratio fed to fasted, BE criteria 0.8–1.25, ref drug label.
Where [15] appears, read: not generated within this working group, ref Table I.
[16] abbreviates: Model 2, fasted, ref published clinical data (Table I).
Where [17] appears, read: Model 2, fed, ref published clinical data (Table I).
[18] abbreviates: Model 2, ref published clinical data (Table I).

With `CC(C)(C)c1cc(C(C)(C)C)c(NC(=O)c2c[nH]c3ccccc3c2=O)cc1O` [Ivacaftor], the pKa in “pKa” (pKa (a, acidic)) stood at 9.4. In addition, in [1], the FaSSIF solubility is listed as 53^^ μg/ml and the FeSSIF solubility is 550^^ μg/ml. Besides, in series [2] (setting [10]), the “Observed AUC(0-inf) Fasted” value was 3.12 µg·h/mL and the “Observed Cmax Fasted” value was 148 ng/mL. Further, in series [2] (setting [11]), the “Observed AUC(0-inf) Fed” value was 9.59 µg·h/mL and the “Observed Cmax Fed” value was 637 ng/mL. Besides, in series [2] (setting [12]), the “Observed AUC Ratios (Fed/Fasted)” value is 3.07 and the “Observed Cmax Ratios (Fed/Fasted)” value is listed as 4.30. Besides, in series [2] (setting [13]), the “Food Effect” value is “Positive (positive if the ratio of fed > fasted)”. Moreover, in series [2] (setting [14]), the Food Effect result is “Positive (positive if the ratio of fed > fasted)”. Further, in “BCS classification”, the BCS entry is “II/IV”. Moreover, in [3] (Model 1), the “AUC Ratio of Ratios (Sim'd / Obs'd)” value is on record as 1.03 and the “Cmax Ratio of Ratios (Sim'd / Obs'd)” value was 1.15. The “Apparent permeability (Caco-2)” value with Caco-2 (setting [15]) is 11.9 (Caco-2)^^ × 10^−6 cm/s. The “Solubility at pH 6.5” value in [4] is on record as 0.5^^ μg/ml.
In turn, `Cc1c(O)cccc1C(=O)N[C@@H](CSc1ccccc1)[C@H](O)CN1C[C@H]2CCCC[C@H]2C[C@H]1C(=O)NC(C)(C)C` [Nelfinavir mesylate] showed a pKa in “pKa” (pKa (b, basic)) of 6. Besides, in series [1], the FaSSIF solubility is 22^^ μg/ml and the FeSSIF solubility was 243^^ μg/ml. For the same molecule, in series [2] (setting [16]), the “Observed AUC(0-inf) Fasted” value was 7.08 µg·h/mL and the “Observed Cmax Fasted” value is 895 ng/mL. Further, in series [2] (setting [17]), the “Observed AUC(0-inf) Fed” value is 35.8 µg·h/mL and the “Observed Cmax Fed” value is 3910 ng/mL. In series [2] (setting [18]), the “Observed AUC Ratios (Fed/Fasted)” value was 5.06 and the “Observed Cmax Ratios (Fed/Fasted)” value is recorded as 4.37. Besides, in [2] (setting [13]), the “Food Effect” value is on record as “Positive (positive if the ratio of fed > fasted)”. Also, the Food Effect result in series [2] (setting [14]) is listed as “Positive (positive if the ratio of fed > fasted)”. In addition, in series [2] (ref drug label), the “food effect (FE) direction” value is “positive FE”. For the same molecule, the BCS entry in the series “BCS classification” is “II/IV”. In [3] (Model 2), the “AUC Ratio of Ratios (Sim'd / Obs'd)” value is 0.58 and the “Cmax Ratio of Ratios (Sim'd / Obs'd)” value was 0.66. Also, the “Solubility at pH 6.5” value in [4] is given as 41.4^^ μg/ml. Besides, the Effective permeability in series [5] amounted to 70 ×10⁻⁶ cm/s.
On to `Cc1ccc(Nc2nccc(N(C)c3ccc4c(C)n(C)nc4c3)n2)cc1S(N)(=O)=O` [Pazopanib], for which the solubility was 0.5 µg/mL (≈ 1.14 µM) in series [6]; 1.2 µg/mL (≈ 2.74 µM) in [7] (FaSSIF-V2 (fasted state simulated intestinal fluid), FaSSIF solubility); 2.8 µg/mL (≈ 6.4 µM) in series [7] (FeSSIF-V2 (fed state simulated intestinal fluid), FeSSIF solubility). The fasted bioavailability in [2] (800 mg dose) is ~ 21%. Moreover, the “fasted bioavailability, range” value in [2] (800 mg dose) was 14–39%. For the same molecule, the “increase in AUC0-72h with a high-fat meal” value is 2.3 fold in series [2] (800 mg dose) and “approximately 2.3 fold” in series [2] (800 mg dose, listed as pazopanib). In [2] (800 mg dose), the “increase in Cmax with a high-fat meal” value is 2.1 fold. Moreover, the “Observed AUC(0-inf) Fasted” value in series [2] (setting [10]) and in series [2] (setting [16]) was 824 µg·h/mL in each case. For the same molecule, the “Observed Cmax Fasted” value in [2] (setting [10]) and in series [2] (setting [16]) was 20700 ng/mL in each case. For the same molecule, the “Observed AUC(0-inf) Fed” value in series [2] (setting [11]) and in series [2] (setting [17]) was 2020 µg·h/mL each time. The “Observed Cmax Fed” value in [2] (setting [11]) and in [2] (setting [17]) was 45200 ng/mL throughout. For the same molecule, the “Observed AUC Ratios (Fed/Fasted)” value in [2] (setting [12]) and in [2] (setting [18]) was 2.45 in each case. The “Observed Cmax Ratios (Fed/Fasted)” value in [2] (setting [12]) and in [2] (setting [18]) was 2.19 in each case. The “Food Effect” value in [2] (setting [13]) and in series [2] (setting [14]) was “Positive (positive if the ratio of fed > fasted)” in each case. In addition, the BCS entry in the series “BCS classification” is “II/IV”. For the same molecule, the “AUC Ratio of Ratios (Sim'd / Obs'd)” value in series [3] (Model 1) worked out at 0.13; in [3] (Model 2), 0.24. Moreover, the “Cmax Ratio of Ratios (Sim'd / Obs'd)” value is listed as 0.12 in series [3] (Model 1) and 0.44 in [3] (Model 2). Also, the “Apparent permeability (Caco-2)” value in the series on Caco-2 (setting [15]) is 16.9 (Caco-2)^^ × 10^−6 cm/s.
Take `CCC[C@H](NC(=O)[C@@H]1[C@H]2CCC[C@H]2CN1C(=O)[C@@H](NC(=O)[C@@H](NC(=O)c1cnccn1)C1CCCCC1)C(C)(C)C)C(=O)C(=O)NC1CC1` [Telaprevir]: the concentration in solution in “physchem [8]” (FaSSIF solubility) (solubility) came to 120 µg/mL (≈ 177 µM). The same molecule gave a solubility in the series “physchem [8]” (FeSSIF solubility) of 80 µg/mL (≈ 118 µM). In series [2] (human, in vivo), the “Food Effect (graded symbols)” value was “+++”, the “Observed AUC Ratios (Fed/Fasted)” value is 3.71, the “Observed AUC(0-inf) Fasted” value was 3.58 µg·h/mL and the “Observed AUC(0-inf) Fed” value was 13.3 µg·h/mL. In [2] (human, in vivo), the “Observed Cmax Fasted” value is 349 ng/mL, the “Observed Cmax Fed” value is 2080 ng/mL and the “Observed Cmax Ratios (Fed/Fasted)” value is 5.96. Besides, in series [3] (Model 1), the “AUC Ratio of Ratios (Sim'd / Obs'd)” value stood at 0.42 and the “Cmax Ratio of Ratios (Sim'd / Obs'd)” value is on record as 0.26. In addition, in series [3] (Model 2), the “AUC Ratio of Ratios (Sim'd / Obs'd)” value worked out at 0.66 and the “Cmax Ratio of Ratios (Sim'd / Obs'd)” value came out at 0.44. This molecule showed a solubility in “physchem [9]” of 85 µg/mL (≈ 125 µM). Besides, in the series on Caco-2 (Caco-2), the “Apparent permeability (Caco-2)” value is 4.4 (Caco-2)^^ × 10^−6 cm/s. The Effective permeability in [5] came out at 140 ×10⁻⁶ cm/s.
